Data as given in PubChem BioAssay (NCI).
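Five concentrations, 48 hours, 96-well plates. GI50 = concentration required for 50% inhibition of growth. TGI: concentration producing complete growth inhibition.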

Legend:
Test in all cases: NCI-60 cell line screen, 48 h
MOLT-4 leukemia = tested on: MOLT-4 leukemia
BT-549 breast = tested on: BT-549 breast
T-47D breast = tested on: T-47D breast
PC-3 prostate = tested on: PC-3 prostate
TK-10 renal = tested on: TK-10 renal
A549 NSCLC = tested on: A549 NSCLC
NCI-H23 lung = tested on: NCI-H23 lung
HCT-116 colon = tested on: HCT-116 colon
HCT-15 colon = tested on: HCT-15 colon
MDA-MB-435 = tested on: MDA-MB-435
SF-539 CNS = tested on: SF-539 CNS
SK-OV-3 ovarian = tested on: SK-OV-3 ovarian
OVCAR-8 ovarian = tested on: OVCAR-8 ovarian
CCRF-CEM leukemia = tested on: CCRF-CEM leukemia
U251 CNS = tested on: U251 CNS
COLO 205 colon = tested on: COLO 205 colon
M14 melanoma = tested on: M14 melanoma
IGROV1 ovarian = tested on: IGROV1 ovarian
SF-295 CNS = tested on: SF-295 CNS
OVCAR-5 ovarian = tested on: OVCAR-5 ovarian
SF-268 CNS = tested on: SF-268 CNS
OVCAR-3 ovarian = tested on: OVCAR-3 ovarian
RPMI-8226 leukemia = tested on: RPMI-8226 leukemia
UO-31 renal = tested on: UO-31 renal
HCC-2998 colon = tested on: HCC-2998 colon
RXF 393 renal = tested on: RXF 393 renal
SN12C renal = tested on: SN12C renal
ACHN renal = tested on: ACHN renal
MDA-MB-468 breast = tested on: MDA-MB-468 breast
NCI-H460 lung = tested on: NCI-H460 lung
SK-MEL-28 melanoma = tested on: SK-MEL-28 melanoma
NCI-H226 lung = tested on: NCI-H226 lung
KM12 colon = tested on: KM12 colon
SR leukemia = tested on: SR leukemia
UACC-62 melanoma = tested on: UACC-62 melanoma
SK-MEL-2 melanoma = tested on: SK-MEL-2 melanoma
OVCAR-4 ovarian = tested on: OVCAR-4 ovarian
HT29 colon = tested on: HT29 colon
UACC-257 melanoma = tested on: UACC-257 melanoma
SW-620 colon = tested on: SW-620 colon
MALME-3M melanoma = tested on: MALME-3M melanoma
HOP-92 NSCLC = tested on: HOP-92 NSCLC
DU-145 prostate = tested on: DU-145 prostate
NCI-H522 lung = tested on: NCI-H522 lung
SK-MEL-5 melanoma = tested on: SK-MEL-5 melanoma
HL-60(TB) leukemia = tested on: HL-60(TB) leukemia
SNB-19 CNS = tested on: SNB-19 CNS
CAKI-1 renal = tested on: CAKI-1 renal
K-562 leukemia = tested on: K-562 leukemia
786-0 renal = tested on: 786-0 renal
HOP-62 NSCLC = tested on: HOP-62 NSCLC
LOX IMVI melanoma = tested on: LOX IMVI melanoma
A498 renal = tested on: A498 renal
SNB-75 CNS = tested on: SNB-75 CNS
HS 578T breast = tested on: HS 578T breast
EKVX NSCLC = tested on: EKVX NSCLC
MCF7 breast = tested on: MCF7 breast
MDA-MB-231 breast = tested on: MDA-MB-231 breast

CN(C(=O)c1ccc(C(F)(F)F)cc1C(F)(F)F)c1sc2c(c1C#N)CCC(=O)C2
GI50 (MOLT-4 leukemia): 4.13 µM
TGI (MOLT-4 leukemia): 27.8 µM
GI50 (BT-549 breast): 2.82 µM
TGI (BT-549 breast): 8.29 µM
GI50 (T-47D breast): 4.43 µM
TGI (T-47D breast): 30.4 µM
GI50 (PC-3 prostate): 2.69 µM
TGI (PC-3 prostate): 6.93 µM
GI50 (TK-10 renal): 14.6 µM
TGI (TK-10 renal): 28 µM
GI50 (A549 NSCLC): 18.1 µM
TGI (A549 NSCLC): 41.8 µM
GI50 (NCI-H23 lung): 6.94 µM
TGI (NCI-H23 lung): 22.8 µM
GI50 (HCT-116 colon): 3.65 µM
TGI (HCT-116 colon): 14.4 µM
GI50 (HCT-15 colon): 3.09 µM
TGI (HCT-15 colon): 11.6 µM
GI50 (MDA-MB-435): 15.7 µM
TGI (MDA-MB-435): 30.5 µM
GI50 (SF-539 CNS): 2.34 µM
TGI (SF-539 CNS): 5.04 µM
GI50 (SK-OV-3 ovarian): 15.3 µM
TGI (SK-OV-3 ovarian): 28.9 µM
GI50 (OVCAR-8 ovarian): 4.66 µM
TGI (OVCAR-8 ovarian): 19 µM
GI50 (CCRF-CEM leukemia): 2.73 µM
TGI (CCRF-CEM leukemia): 14.6 µM
GI50 (U251 CNS): 1.98 µM
TGI (U251 CNS): 4.68 µM
GI50 (COLO 205 colon): 16 µM
TGI (COLO 205 colon): 30.5 µM
GI50 (M14 melanoma): 4.18 µM
TGI (M14 melanoma): 19.2 µM
GI50 (IGROV1 ovarian): 11.3 µM
TGI (IGROV1 ovarian): 25.7 µM
GI50 (SF-295 CNS): 12.3 µM
TGI (SF-295 CNS): 25.6 µM
GI50 (OVCAR-5 ovarian): 21.3 µM
TGI (OVCAR-5 ovarian): 39.6 µM
GI50 (SF-268 CNS): 12.1 µM
TGI (SF-268 CNS): 32.8 µM
GI50 (OVCAR-3 ovarian): 2.4 µM
TGI (OVCAR-3 ovarian): 6.1 µM
GI50 (RPMI-8226 leukemia): 2.82 µM
TGI (RPMI-8226 leukemia): 13.3 µM
GI50 (UO-31 renal): 3.15 µM
TGI (UO-31 renal): 13.7 µM
GI50 (HCC-2998 colon): 15.1 µM
TGI (HCC-2998 colon): 29.5 µM
GI50 (RXF 393 renal): 2.74 µM
TGI (RXF 393 renal): 10.1 µM
GI50 (SN12C renal): 10.5 µM
TGI (SN12C renal): 29.6 µM
GI50 (ACHN renal): 14.2 µM
TGI (ACHN renal): 29.6 µM
GI50 (MDA-MB-468 breast): 2.35 µM
TGI (MDA-MB-468 breast): 6.93 µM
GI50 (NCI-H460 lung): 17.2 µM
TGI (NCI-H460 lung): 33.2 µM
GI50 (SK-MEL-28 melanoma): 21.4 µM
TGI (SK-MEL-28 melanoma): 43.8 µM
GI50 (NCI-H226 lung): 16.7 µM
TGI (NCI-H226 lung): 40.9 µM
GI50 (KM12 colon): 4.25 µM
TGI (KM12 colon): 17.5 µM
GI50 (SR leukemia): 2.64 µM
TGI (SR leukemia): 11 µM
GI50 (UACC-62 melanoma): 4.48 µM
TGI (UACC-62 melanoma): 17 µM
GI50 (SK-MEL-2 melanoma): 14.3 µM
TGI (SK-MEL-2 melanoma): 31 µM
GI50 (OVCAR-4 ovarian): 3 µM
TGI (OVCAR-4 ovarian): 10.3 µM
GI50 (HT29 colon): 17.6 µM
TGI (HT29 colon): 34.4 µM
GI50 (UACC-257 melanoma): 16.3 µM
TGI (UACC-257 melanoma): 32.8 µM
GI50 (SW-620 colon): 3.22 µM
TGI (SW-620 colon): 12.3 µM
GI50 (MALME-3M melanoma): 18.1 µM
TGI (MALME-3M melanoma): 36.1 µM
GI50 (HOP-92 NSCLC): 5.35 µM
TGI (HOP-92 NSCLC): 19.3 µM
GI50 (DU-145 prostate): 17.3 µM
TGI (DU-145 prostate): 31.3 µM
GI50 (NCI-H522 lung): 1.62 µM
TGI (NCI-H522 lung): 3.38 µM
GI50 (SK-MEL-5 melanoma): 8.15 µM
TGI (SK-MEL-5 melanoma): 21.1 µM
GI50 (HL-60(TB) leukemia): 3.33 µM
TGI (HL-60(TB) leukemia): 25.6 µM
GI50 (SNB-19 CNS): 12.4 µM
TGI (SNB-19 CNS): 26.8 µM
GI50 (CAKI-1 renal): 7.01 µM
TGI (CAKI-1 renal): 21.1 µM
GI50 (K-562 leukemia): 2.7 µM
TGI (K-562 leukemia): > 100 µM
GI50 (786-0 renal): 15.7 µM
TGI (786-0 renal): 34.7 µM
GI50 (HOP-62 NSCLC): 16.1 µM
TGI (HOP-62 NSCLC): 30.3 µM
GI50 (LOX IMVI melanoma): 4.09 µM
TGI (LOX IMVI melanoma): 15.5 µM
GI50 (A498 renal): 16.9 µM
TGI (A498 renal): 30.9 µM
GI50 (SNB-75 CNS): 5.25 µM
TGI (SNB-75 CNS): 20.7 µM
GI50 (HS 578T breast): 3.92 µM
TGI (HS 578T breast): 28.7 µM
GI50 (EKVX NSCLC): 14.2 µM
TGI (EKVX NSCLC): 30.8 µM
GI50 (MCF7 breast): 14.6 µM
TGI (MCF7 breast): 31 µM
GI50 (MDA-MB-231 breast): 13.1 µM
TGI (MDA-MB-231 breast): 35 µM
